According to ChEMBL document CHEMBL4265885, “New piperidine-based derivatives as sigma receptor ligands. Synthesis and pharmacological evaluation” (Bioorg Med Chem Lett, 2018):

Tests used:
PANC-1 = experiment: Cytotoxicity against human PANC1 cells at 50 uM after 48 hrs by MTT assay; type: functional
SH-SY5Y = experiment: Cytotoxicity against human SH-SY5Y cells at 50 uM after 48 hrs by MTT assay; type: functional
[1] = target: T1, Sigma intracellular receptor 2 (Rattus norvegicus, UniProt Q5U3Y7); experiment: Displacement of [3H]-DTG from sigma2 receptor in rat liver membranes after 120 mins by liquid scintillation counting; type: cell membranes, Membrane
T1 sequence (Q5U3Y7 whole entry): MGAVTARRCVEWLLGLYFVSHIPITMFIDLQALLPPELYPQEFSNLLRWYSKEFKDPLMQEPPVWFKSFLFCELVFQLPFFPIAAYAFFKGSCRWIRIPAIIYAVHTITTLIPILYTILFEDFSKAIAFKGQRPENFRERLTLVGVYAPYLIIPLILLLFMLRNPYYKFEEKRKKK

[2] = target: Sigma non-opioid intracellular receptor 1 (Rattus norvegicus, UniProt Q9R0C9); experiment: Displacement of [3H]-(+)-pentazocine from sigma1 receptor in rat liver membranes after 120 mins by liquid scintillation counting; type: cell membranes, Membrane
Rattus norvegicus = species on record: Rattus norvegicus; experiment: Selectivity index, ratio of Ki for sigma2 receptor in rat liver membranes to Ki for sigma1 receptor in rat liver membranes; type: cell membranes

Sequence of Sigma non-opioid intracellular receptor 1 (Q9R0C9 whole entry): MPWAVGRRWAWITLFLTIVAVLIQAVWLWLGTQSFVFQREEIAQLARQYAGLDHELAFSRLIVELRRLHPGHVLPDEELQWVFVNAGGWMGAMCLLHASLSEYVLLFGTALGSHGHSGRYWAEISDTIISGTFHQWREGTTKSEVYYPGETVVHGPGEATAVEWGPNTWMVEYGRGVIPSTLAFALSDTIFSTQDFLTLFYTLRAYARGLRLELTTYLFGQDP

CCCN(CCC)CCc1ccc(OC)c(OCCc2ccccc2)c1
Activity (PANC-1): 92% | Activity (SH-SY5Y): 92%

Cc1ccccc1NC(=N)Nc1ccccc1C [DITOLYLGUANIDINE]
Activity (PANC-1): 80% | Activity (SH-SY5Y): 80%

CCN(CC1CCN(Cc2ccccc2)CC1)C(C)=O
Ki [1]: 422 nM | Ki [2]: 97.2 nM | Ratio Ki (Rattus norvegicus): 4.3

CCCN(CC1CCN(Cc2ccccc2)CC1)C(C)=O
Ki [2]: 36.8 nM

O=C(CCCN1CCC(O)(c2ccc(Cl)cc2)CC1)c1ccc(F)cc1 [HALOPERIDOL]
Activity (PANC-1): 66% | Activity (SH-SY5Y): 66%

CC(C)=CCN1CCC2(C)c3cc(O)ccc3CC1C2C (stereo unspecified) [PENTAZOCINE]
Activity (PANC-1): 5% | Activity (SH-SY5Y): 5%

c1ccc(CCN2CCCCC2)cc1
Activity (PANC-1): 21% | Activity (SH-SY5Y): 21%

Fc1ccc(-n2cc(CCCCN3CCC4(CC3)OCc3ccccc34)c3ccccc32)cc1 [SIRAMESINE]
Activity (PANC-1): 90% | Activity (SH-SY5Y): 90%
